In patent US8247211B2, “Glycopeptide antibiotics” (American Cyanamid Company, priority 2001, dated 2012):
≈ marks a conversion by molar mass, not a printed value. Numbered stars: 1 amine (or outer) side, 2 acyl side, 3 side chain; on linkers, the order of the positions; unused ones are H or OH. Square brackets hold non-standard residues; d marks the D form. Peptide text beside a SMILES is read from it. X5 = N=C1NCC(C(O)[C@@H](N[*:1])C(=O)[*:2])N1; X4 = N=C1NCC(C(O)[C@H](N[*:1])C(=O)[*:2])N1; Cha = N[C@@H](CC1CCCCC1)C(=O)O; dCha = N[C@H](CC1CCCCC1)C(=O)O

Columns and labels:
Experiment in all cases: In vitro antibacterial evaluation: minimum inhibitory concentration (MIC), broth dilution method
Format in all cases: cell-based
Streptococcus sp. = conditions: 18 hours at 35° C.
Procedure: (§1) The minimum inhibitory concentration (MIC), the lowest concentration of the antibiotic which inhibits growth of the test organism, is determined by the broth dilution method using Muller-Hinton II […] (Baltimore Biological Laboratories) following the recommendations of the National Committee for Clinical Laboratory Standards [Methods for dilution antimicrobial susceptibility tests for bacteria that grow aerobically, approved standard M7-A2, National Committee for Clinical Laboratory Standards, Villanova, Pa].
(§2) An inoculum level of 5×10^5 CFU/mL, and a range of antibiotic concentrations (64-0.06 μg/mL) is used. […] The test organisms include a spectrum of Gram-positive bacteria comprised of Staphylococcus sp., Streptococcus sp. and Enterococcus sp. These organisms include recent clinical isolates that are resistant to methicillin, penicillin and/or vancomycin.

Enterococcus sp. = conditions: broth dilution, 18 hours at 35° C.
Procedure: as §1, §2

Staphylococcus sp. = conditions: 18 hours at 35° C.
Procedure: as §1, §2

[1] = Streptococcus agalactiae (GC 4564), broth dilution
[2] = Streptococcus pneumoniae (ATCC 6301), broth dilution
[3] = Streptococcus pneumoniae (GC 1894), broth dilution
[4] = Streptococcus pneumoniae (GC 4565), broth dilution
[5] = Streptococcus pyogenes (GC 4563), broth dilution
[6] = broth dilution, inoculum 5×10^5 CFU/mL

CC(c1ccccc1)C1NC(=O)CNC(=O)C(CO)NC(=O)C(C(O)C2CNC(=N)N2C2OC(CO)C(O)C(O)C2O)NC(=O)C(C(O)C2CNC(=N)N2)NC(=O)C(Cc2ccc3oc(=O)[nH]c3c2)NC1=O (stereo not drawn) [Example 22, Cyclo[3-(2,3-dihydro-2-oxo-1,3-benzoxazol-5-yl)alanyl-3-(2-iminoimidazolidin-4-yl)seryl-3-(3-hexopyranosyl-2-iminoimidazolidin-4-yl)serylserylglycyl-β-methylphenylalanyl]]
MIC Streptococcus agalactiae (GC 4564) (Streptococcus sp.; [1]): 32 µg/mL (≈ 31.6 µM)
MIC Streptococcus pneumoniae (ATCC 6301) (Streptococcus sp.; [2]): 8 µg/mL (≈ 7.91 µM)
MIC Streptococcus pneumoniae (GC 1894) (Streptococcus sp.; [3]): 8 µg/mL (≈ 7.91 µM)
MIC Streptococcus pneumoniae (GC 4565) (Streptococcus sp.; [4]): 8 µg/mL (≈ 7.91 µM)
MIC Streptococcus pyogenes (GC 4563) (Streptococcus sp.; [5]): 32 µg/mL (≈ 31.6 µM)
MIC Streptococcus agalactiae (GC 4564) (Streptococcus sp.; broth dilution): 32 µg/mL (≈ 31.6 µM)
MIC Streptococcus pneumoniae (ATCC 6301) (Streptococcus sp.; broth dilution): 8 µg/mL (≈ 7.91 µM)
MIC Streptococcus pneumoniae (GC 1894) (Streptococcus sp.; broth dilution): 8 µg/mL (≈ 7.91 µM)
MIC Streptococcus pneumoniae (GC 4565) (Streptococcus sp.; broth dilution): 8 µg/mL (≈ 7.91 µM)
MIC Streptococcus pyogenes (GC 4563) (Streptococcus sp.; broth dilution): 32 µg/mL (≈ 31.6 µM)
MIC Enterococcus faecium (GC 4557) (Enterococcus sp.; Enterococcus faecium (GC 4557)): 64 µg/mL (≈ 63.2 µM)
MIC Enterococcus faecium (GC 4557) (Enterococcus sp.): 64 µg/mL (≈ 63.2 µM)

Cc1cccc(Oc2ccc(-c3nc4cc(C[C@@H]5NC(=O)[C@H](C(C)c6ccccc6)NC(=O)CNC(=O)[C@H](CO)NC(=O)[C@H](C(O)C6CNC(=N)N6)NC(=O)[C@H](C(O)C6CNC(=N)N6)NC5=O)ccc4o3)cc2)c1 (stereo partly drawn) [Example 41, Cyclo[3-[2-[4-(3-methylphenoxy)phenyl]benzoxazol-5-yl]alanyl-3-(2-iminoimidazolidin-4-yl)-seryl-3-(2-iminoimidazolidin-4-yl)serylserylglycyl-β-methylphenylalanyl]]
MIC Enterococcus faecalis (GC 6189) (Enterococcus sp.; Enterococcus faecalis (GC 6189)): >64 µg/mL
MIC Staphylococcus haemolyticus (GC 4546) (Staphylococcus sp.; strain GC 4546, broth dilution): 64 µg/mL (≈ 63 µM)
MIC Coagulase Negative Staphylococcus (GC 4547) (Staphylococcus sp.; strain GC 4547, broth dilution): 64 µg/mL (≈ 63 µM)
MIC Coagulase Negative Staphylococcus (GC 4548) (Staphylococcus sp.; strain GC 4548, broth dilution): >64 µg/mL
MIC Coagulase Negative Staphylococcus (GC 4549) (Staphylococcus sp.; strain GC 4549, broth dilution): 32 µg/mL (≈ 31.5 µM)
MIC Coagulase Negative Staphylococcus (GC 4551) (Staphylococcus sp.; strain GC 4551, broth dilution): 64 µg/mL (≈ 63 µM)

CC(C1CCCCC1)C1NC(=O)CNC(=O)C(CO)NC(=O)C(C(O)C2CNC(=N)N2C2OC(CO)C(O)C(O)C2O)NC(=O)C(C(O)C2CNC(=N)N2)NC(=O)C(CC2CCC(OC3OC(CO)C(OC4OC(CO)C(O)C(O)C4O)C(O)C3O)CC2)NC1=O (stereo not drawn) [Example 53a, Cyclo[3-[4-[(4-O-hexopyranosylhexopyranosyl)oxy]cyclohexyl]alanyl-3-(2-iminoimidazolidin-4-yl)seryl-3-(3-hexopyranosyl-2-iminoimidazolidin-4-yl)serylserylglycyl-3-cyclohexyl-2-aminobutanoyl]]
MIC Streptococcus agalactiae (GC 4564) (Streptococcus sp.; [1]): 64 µg/mL (≈ 49 µM)
MIC Streptococcus pneumoniae (ATCC 6301) (Streptococcus sp.; [2]): 64 µg/mL (≈ 49 µM)
MIC Streptococcus pneumoniae (GC 1894) (Streptococcus sp.; [3]): 32 µg/mL (≈ 24.5 µM)
MIC Streptococcus pneumoniae (GC 4565) (Streptococcus sp.; [4]): 64 µg/mL (≈ 49 µM)
MIC Streptococcus pyogenes (GC 4563) (Streptococcus sp.; [5]): 64 µg/mL (≈ 49 µM)
MIC Streptococcus agalactiae (GC 4564) (Streptococcus sp.; broth dilution): 64 µg/mL (≈ 49 µM)
MIC Streptococcus pneumoniae (ATCC 6301) (Streptococcus sp.; broth dilution): 64 µg/mL (≈ 49 µM)
MIC Streptococcus pneumoniae (GC 1894) (Streptococcus sp.; broth dilution): 32 µg/mL (≈ 24.5 µM)
MIC Streptococcus pneumoniae (GC 4565) (Streptococcus sp.; broth dilution): 64 µg/mL (≈ 49 µM)
MIC Streptococcus pyogenes (GC 4563) (Streptococcus sp.; broth dilution): 64 µg/mL (≈ 49 µM)

Cc1ccc(OC(=O)Nc2cc(CC3NC(=O)C(C(C)c4ccccc4)NC(=O)CNC(=O)C(CO)NC(=O)C(C(O)C4CNC(=N)N4C4OC(CO)C(O)C(O)C4O)NC(=O)C(C(O)C4CNC(=N)N4)NC3=O)ccc2O)cc1 (stereo not drawn) [Example 19, Cyclo[glycyl-β-methylphenylalanyl-3-[[(4-methylphenoxy)carbonyl]amino]tyrosyl-3-(2-iminoimidazolidin-4-yl)seryl-3-(3-hexopyranosyl-2-iminoimidazolidin-4-yl)serylseryl]]
MIC Streptococcus pneumoniae (GC 1894) (Streptococcus sp.; [3]): 64 µg/mL (≈ 57.1 µM)
MIC Streptococcus pneumoniae (GC 1894) (Streptococcus sp.; broth dilution): 64 µg/mL (≈ 57.1 µM)

CC(c1ccccc1)C1NC(=O)CNC(=O)C(CO)NC(=O)C(C(O)C2CNC(=N)N2C2OC(CO)C(O)C(O)C2O)NC(=O)C(C(O)C2CNC(=N)N2)NC(=O)C(Cc2ccc(OC3OC(CO)C(OC4OC(CO)C(O)C(O)C4OCc4ccc(OCc5ccccc5)cc4)C(O)C3O)cc2)NC1=O (stereo not drawn) [Example 231b, Cyclo[glycyl-β-methylphenylalanyl-O-[4-O-[2-O-[4-(phenylmethoxy)benzyl]hexopyranosyl]-hexopyranosyl]tyrosyl-3-(2-iminoimidazolidin-4-yl)seryl-3-(3-hexopyranosyl-2-iminoimidazolidin-4-yl)serylseryl]]
MIC Streptococcus agalactiae (GC 4564) (Streptococcus sp.; Streptococcus agalactiae (GC 4564)): 1 to 8 µg/mL
MIC Streptococcus pneumoniae (GC 1894) (Streptococcus sp.; Streptococcus pneumoniae (GC 1894)): <0.06 to 2 µg/mL
MIC Streptococcus pneumoniae (GC 4565) (Streptococcus sp.; Streptococcus pneumoniae (GC 4565)): 0.5 to 8 µg/mL
MIC Streptococcus pyogenes (GC 4563) (Streptococcus sp.; Streptococcus pyogenes (GC 4563)): 1 to 8 µg/mL
MIC Streptococcus agalactiae (GC 4564) (Streptococcus sp.; [6]): 1 to 8 µg/mL
MIC Streptococcus pneumoniae (GC 1894) (Streptococcus sp.; [6]): <0.06 to 2 µg/mL
MIC Streptococcus pneumoniae (GC 4565) (Streptococcus sp.; [6]): 0.5 to 8 µg/mL
MIC Streptococcus pyogenes (GC 4563) (Streptococcus sp.; [6]): 1 to 8 µg/mL
MIC Coagulase Negative Staphylococcus (GC 6257) (Staphylococcus sp.; Coagulase Negative Staphylococcus (GC 6257)): 12 to 32 µg/mL

CCC(=O)Nc1cc(CC2NC(=O)C(C(C)c3ccccc3)NC(=O)CNC(=O)C(CO)NC(=O)C(C(O)C3CNC(=N)N3C3OC(CO)C(O)C(O)C3O)NC(=O)C(C(O)C3CNC(=N)N3)NC2=O)ccc1O (stereo not drawn) [Example 14, Cyclo[glycyl-β-methylphenylalanyl-3-(propanamido)tyrosyl-3-(2-iminoimidazolidin-4-yl)seryl-3-(3-hexopyranosyl-2-iminoimidazolidin-4-yl)serylseryl]]
MIC Streptococcus pneumoniae (GC 4565) (Streptococcus sp.; [4]): 64 µg/mL (≈ 61.4 µM)
MIC Streptococcus pneumoniae (GC 4565) (Streptococcus sp.; broth dilution): 64 µg/mL (≈ 61.4 µM)

CC(C)C(=O)Nc1cc(CC2NC(=O)C(C(C)c3ccccc3)NC(=O)CNC(=O)C(CO)NC(=O)C(C(O)C3CNC(=N)N3C3OC(CO)C(O)C(O)C3O)NC(=O)C(C(O)C3CNC(=N)N3)NC2=O)ccc1O (stereo not drawn) [Example 15, Cyclo[glycyl-β-methylphenylalanyl-3-(2-methylpropanamido)tyrosyl-3-(2-iminoimidazolidin-4-yl)seryl-3-(3-hexopyranosyl-2-iminoimidazolidin-4-yl)serylseryl]]
MIC Streptococcus pneumoniae (GC 4565) (Streptococcus sp.; [4]): 64 µg/mL (≈ 60.6 µM)
MIC Streptococcus pneumoniae (GC 4565) (Streptococcus sp.; broth dilution): 64 µg/mL (≈ 60.6 µM)

N=C1NCC(C(O)[C@@H]2NC(=O)[C@@H](CC3CCCCC3)NC(=O)[C@H](CC3CCCCC3)NC(=O)CNC(=O)[C@H](CO)NC(=O)[C@@H](C(O)C3CNC(=N)N3)NC2=O)N1 (stereo partly drawn) [Example 58, Cyclo[3-cyclohexylalanyl-3-cyclohexylalanyl-3-(2-iminoimidazolidin-4-yl)seryl-3-(2-iminoimidazolidin-4-yl)-serylserylglycyl]] (cyclo([Cha][dCha][X4][X5]SG))
MIC Coagulase Negative Staphylococcus (GC 4547) (Staphylococcus sp.; broth dilution): 4 µg/mL (≈ 5.06 µM)
MIC Coagulase Negative Staphylococcus (GC 4548) (Staphylococcus sp.; broth dilution): 4 µg/mL (≈ 5.06 µM)
MIC Coagulase Negative Staphylococcus (GC 4549) (Staphylococcus sp.; broth dilution): 4 µg/mL (≈ 5.06 µM)
MIC Coagulase Negative Staphylococcus (GC 4551) (Staphylococcus sp.; broth dilution): 8 µg/mL (≈ 10.1 µM)
MIC Staphylococcus haemolyticus (GC 4546) (Staphylococcus sp.; broth dilution): 4 µg/mL (≈ 5.06 µM)
MIC Staphylococcus aureus (ATCC 29213) (Staphylococcus sp.; strain ATCC 29213, broth dilution): 16 µg/mL (≈ 20.2 µM)
MIC Staphylococcus aureus (GC 4542) (Staphylococcus sp.; strain GC 4542, broth dilution): 16 µg/mL (≈ 20.2 µM)
MIC Staphylococcus aureus (GC 4544) (Staphylococcus sp.; strain GC 4544, broth dilution): 16 µg/mL (≈ 20.2 µM)
